From publication PMC12029531, “Selenium in Action: Exploring the Biological Wonders of Hydroselenite Salts” (Molecules, 2025)
Values after ≈ are worked out from the molar mass of the structure shown. Like-named read-outs stand apart in the source and are kept apart here.

Experiments:
Panc-1 cells = settings: several experimental conditions; cited from earlier work
Staphylococcus aureus = experiment: MIC and MBC, broth micro-dilution; format: cell-based; settings: S. aureus; for MIC: 24 h
DU-145 (prostate cancer) = experiment: MTT antiproliferative assay; format: cell-based, human; settings: DU-145, 48 h, mean ± SD
Bacillus sphaericus = experiment: MIC and MBC, broth micro-dilution; format: cell-based; settings: B. sphaericus; for MIC: 24 h
[1] = test system: U251 (glioblastoma cancer); experiment: MTT antiproliferative assay; format: cell-based, human; settings: U251, 48 h, mean ± SD
Escherichia coli = experiment: MIC and MBC, broth micro-dilution; format: cell-based; settings: E. coli; for MIC: 24 h
Pseudomonas aeruginosa = experiment: MIC and MBC, broth micro-dilution; format: cell-based
[2] = test system: normal human dermal fibroblasts (NHDF); experiment: MTT assay in non-malignant cells; format: cell-based; settings: 48 h, mean ± SD
Klebsiella pneumoniae = experiment: MIC and MBC, broth micro-dilution; format: cell-based; settings: K. pneumoniae; for MIC: 24 h
[3] = test system: Panc-1 (pancreatic cancer); experiment: MTT antiproliferative assay; format: cell-based, human; settings: mean ± SD
[4] = test system: Staphylococcus epidermidis; experiment: MIC and MBC, broth micro-dilution; format: cell-based; settings: S. epidermidis; for MIC: 24 h
[5] = test system: MCF-7 (human breast adenocarcinoma cells); experiment: MTT antiproliferative assay; format: cell-based; settings: MCF-7, 48 h, mean ± SD
U251 cell line = experiment: Cytotoxicity of selenous acid (MTS assay, Figure S60); format: cell-based, human; settings: U251, 48 h, 1–100 µM
Source text: The striking difference in the potency of Se salts as compared to their corresponding parent compounds raises a question: Could the release of the Se salt part of the molecules be solely responsible for these activities? Nevertheless, after thoroughly analyzing the in vitro antiproliferative activities and the structure of the reported compounds, our initial hypothesis is that the antitumor activity of the new selenium salts might not be due to the release of the Se inorganic, as evinced by the following four experimental outcomes: (1) All the salt compounds should have shown similar efficacy at the same molar concentrations if the toxicity was solely due to the release of the Se salt part. […] To confirm this hypothesis and due to the scarce number of reported antitumor activities of selenous acid, we evaluated H2SeO3 in the U251 cell line in our experimental setup. […] Since the IC50 value of selenous acid is in the range of what is observed for SLT-1-6 (Table 3), the increased antiproliferative activity of the salts might or might not be linked to the release of the Se salt fragment of the molecule. […] Further studies are needed to fully characterize and understand the behavior of these selenous salts.
Figure S58. Dose-response curves of SLT-6 in all the cell lines present in the NCI panel.
Figure S59. […]
Cell viability was assessed using an MTS assay. […]

[6] = Staphylococcus aureus, read-out: MIC
[7] = Staphylococcus aureus, read-out: MBC
[8] = Lysinibacillus sphaericus, read-out: MIC
[9] = Lysinibacillus sphaericus, read-out: MBC
[10] = Escherichia coli, read-out: MIC
[11] = Escherichia coli, read-out: MBC
[12] = Pseudomonas aeruginosa; P. aeruginosa; read-out: MBC
[13] = Klebsiella pneumoniae, read-out: MBC
[14] = Klebsiella pneumoniae, read-out: MIC
[15] = Staphylococcus epidermidis, read-out: MIC
[16] = Staphylococcus epidermidis, read-out: MBC
[17] = Pseudomonas aeruginosa; P. aeruginosa, 24 h; read-out: MIC

Row | Compound | MIC (Staphylococcus aureus; [6]) [µg/mL] | MBC (Staphylococcus aureus; [7]) [µg/mL] | IC50 (DU-145 (prostate cancer)) [µM] | MIC (Bacillus sphaericus; [8]) [µg/mL] | MBC (Bacillus sphaericus; [9]) [µg/mL] | IC50 [1] [µM] | MIC (Escherichia coli; [10]) [µg/mL] | MBC (Escherichia coli; [11]) [µg/mL] | MBC (Pseudomonas aeruginosa; [12]) [µg/mL] | MBC (Klebsiella pneumoniae; [13]) [µg/mL] | MIC (Klebsiella pneumoniae; [14]) [µg/mL] | IC50 ([3]; Homo sapiens, PANC-1, 48 h) [µM] | MBC [4, 16] [µg/mL] | IC50 [5] [µM] | MIC (Pseudomonas aeruginosa; P. aeruginosa, 24 h) [µg/mL] | IC50 [2] [µM] | MIC [4] [µg/mL] | MBC (Staphylococcus aureus) [µg/mL] | MBC (Klebsiella pneumoniae) [µg/mL] | MBC [4] [µg/mL] | other results
1 | O=[Se]([O-])[O-].[Na+].[Na+] [sodium selenite] |  |  |  |  |  |  |  |  |  |  |  |  |  |  |  |  |  |  |  |  | IC50 (Panc-1 cells): low micromolar range
2 | COc1cc(Cc2cnc(N)nc2N)cc(OC)c1OC [AB-2, trimethoprim] | 1.56 (≈ 5.37 µM) | 3.13 (≈ 10.8 µM) | > 100 | 1.56 (≈ 5.37 µM) | 6.25 (≈ 21.5 µM) | > 100 | 1.56 (≈ 5.37 µM) | 6.25 (≈ 21.5 µM) | > 200 | 12.5 (≈ 43.1 µM) | 3.13 (≈ 10.8 µM) | > 100 | > 200 | > 100 |  |  |  |  |  |  | MIC (Pseudomonas aeruginosa; Pseudomonas aeruginosa, 24 h, P. aeruginosa, 24 h; read-out: MIC): 50 µg/mL (≈ 172 µM); IC50 ([2]; Homo sapiens): 6.47 ± 1.79 µM; MIC [4, 15]: > 200 µg/mL
3 | Nc1ccc(S(=O)(=O)Nc2ncccn2)cc1 [AB-4, sulfadiazine] | > 200 | > 200 | > 100 | > 200 | > 200 | > 100 | > 200 | > 200 | > 200 | > 200 | > 200 |  | > 200 | > 100 | 50 (≈ 200 µM) | > 100 | >200 |  |  |  | IC50 ([3]; Panc-1, 48 h): > 100 µM
4 | NNC(=O)c1ccncc1 [AB-5, isoniazid] | > 200 | > 200 | 99.92 ± 0.2 | > 200 | > 200 | > 100 | > 200 | > 200 | > 200 | > 200 | > 200 | > 100 | > 200 | > 100 |  | 41.2 ± 12.1 |  |  |  |  | MIC (Pseudomonas aeruginosa; [17]): > 200 µg/mL; MIC [4, 15]: > 200 µg/mL
5 | O=[Se](O)O [H2SeO3, selenous acid] |  |  |  |  |  |  |  |  |  |  |  |  |  |  | 200 (≈ 1550 µM) |  | 100 (≈ 775 µM) | 200 (≈ 1550 µM) | 200 (≈ 1550 µM) | 200 (≈ 1550 µM) | IC50 (U251 cell line): 1.04 µM; MIC (Staphylococcus aureus): 100 µg/mL (≈ 775 µM); MBC (Bacillus sphaericus): 200 µg/mL (≈ 1550 µM); MIC (Bacillus sphaericus): 100 µg/mL (≈ 775 µM); MBC (Escherichia coli): >200 µg/mL; MIC (Escherichia coli): 200 µg/mL (≈ 1550 µM); MBC (Pseudomonas aeruginosa; P. aeruginosa): >200 µg/mL; MIC (Klebsiella pneumoniae): 100 µg/mL (≈ 775 µM)
6 | CNC(C)C1CCC(N)C(OC2C(N)CC(N)C(OC3OCC(C)(O)C(NC)C3O)C2O)O1 (stereo not drawn) [AB-6, gentamicin] | 25 (≈ 52.3 µM) |  | > 100 | 0.2 (≈ 0.419 µM) | 0.78 (≈ 1.63 µM) | > 100 | 25 (≈ 52.3 µM) | 25 (≈ 52.3 µM) | 12.5 (≈ 26.2 µM) |  |  |  |  | > 100 |  | > 100 | 0.39 (≈ 0.817 µM) | 50 (≈ 105 µM) | 3.13 (≈ 6.55 µM) | 0.39 (≈ 0.817 µM) | MIC (Pseudomonas aeruginosa; [17]): 6.56 µg/mL (≈ 13.7 µM); MIC (Klebsiella pneumoniae; Klebsiella pneumoniae): 1.56 µg/mL (≈ 3.27 µM); IC50 ([3]; Panc-1, 48 h): > 100 µM
7 | Nc1ccc(S(=O)(=O)c2ccc(N)cc2)cc1 [AB-3, dapsone] |  |  | > 100 |  |  | > 100 |  |  |  |  |  | > 100 |  | > 100 | >200 | > 100 | >200 | >200 | >200 | >200 | MIC (Staphylococcus aureus): >200 µg/mL; MBC (Bacillus sphaericus): >200 µg/mL; MIC (Bacillus sphaericus): >200 µg/mL; MBC (Escherichia coli): >200 µg/mL; MIC (Escherichia coli): >200 µg/mL; MBC (Pseudomonas aeruginosa; P. aeruginosa): >200 µg/mL; MIC (Klebsiella pneumoniae): >200 µg/mL
